Experimental data reported in patent US20230085307A1, “PYRIDAZINONE COMPOUND AND HERBICIDE” (NISSAN CHEMICAL CORPORATION, priority 2019, published 2023).

Legend:
[1] = system: barnyard grass; assay: Test Example 4: herbicidal effect by soil treatment (Table 19, symbol H); type: in vivo, barnyard grass (Echinochloa crus-galli)
Outline: (§1)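 Soil-surface application: an emulsion agent diluted with water to the predetermined dose is sprayed uniformly over seeds lying under roughly 1.5 cm of sterilized diluvial soil. Boxes stay in a greenhouse at 25° C. to 30° C. Three weeks later, each species is graded on previously defined criteria.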

[2] = system: southern crabgrass; assay: Test Example 5: herbicidal effect by foliage application, plastic box (Table 20, symbol F); type: in vivo, southern crabgrass (Digitaria ciliaris); details: foliage application, 3 weeks after application
Outline: (§2)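 Sow seeds spot-wise in sterilized diluvial soil; cover with ~1.5 cm soil. Grow 14 days in greenhouse, 25° C. to 30° C. Spray foliage with emulsion diluted to predetermined amount. Rate effect after 3 weeks.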

[3] = system: chickweed; assay: Test Example 4: herbicidal effect by soil treatment (Table 19, symbol P); type: in vivo, common chickweed (Stellaria media)
Outline: as §1

[4] = system: velvetleaf; assay: Test Example 5: herbicidal effect by foliage application, plastic box (Table 20, symbol M); type: in vivo, velvetleaf (Abutilon theophrasti); details: foliage application, 3 weeks after application
Outline: as §2

[5] = system: wild oat; assay: Test Example 5: herbicidal effect by foliage application, plastic box (Table 20, symbol I); type: in vivo, wild oat (Avena fatua); details: foliage application, 3 weeks after application
Outline: as §2

[6] = system: green foxtail; assay: Test Example 4: herbicidal effect by soil treatment (Table 19, symbol G); type: in vivo, green foxtail (Setaria viridis)
Outline: as §1

[7] = system: redroot pigweed; assay: Test Example 4: herbicidal effect by soil treatment (Table 19, symbol N); type: in vivo, redroot pigweed (Amaranthus retroflexus)
Outline: as §1

[8] = system: southern crabgrass; assay: Test Example 4: herbicidal effect by soil treatment (Table 19, symbol F); type: in vivo, southern crabgrass (Digitaria ciliaris)
Outline: as §1

[9] = system: Chinese sprangletop; assay: Test Example 3: herbicidal effect by foliage application, Wagner pot (Table 18, symbol D); type: in vivo, chinese sprangletop (Leptochloa chinensis)
Outline: (§3)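 Plants were sown in alluvial soil held under 0.1–0.5 cm standing water and grown 14 days in a greenhouse at 25–30 °C. An emulsifiable formulation, water-diluted to the set dose, was then sprayed onto the foliage, and effects were scored three weeks later using previously defined criteria.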

[10] = system: wild oat; assay: Test Example 4: herbicidal effect by soil treatment (Table 19, symbol I); type: in vivo, wild oat (Avena fatua)
Outline: as §1

[11] = system: windgrass; assay: Test Example 4: herbicidal effect by soil treatment (Table 19, symbol L); type: in vivo, windgrass (Apera spica-venti)
Outline: as §1

[12] = system: barnyard grass; assay: Test Example 3: herbicidal effect by foliage application, Wagner pot (Table 18, symbol H); type: in vivo, barnyard grass (Echinochloa crus-galli)
Outline: as §3

[13] = system: green foxtail; assay: Test Example 5: herbicidal effect by foliage application, plastic box (Table 20, symbol G); type: in vivo, green foxtail (Setaria viridis); details: foliage application, 3 weeks after application
Outline: as §2

[14] = system: velvetleaf; assay: Test Example 4: herbicidal effect by soil treatment (Table 19, symbol M); type: in vivo, velvetleaf (Abutilon theophrasti)
Outline: as §1

[15] = system: windgrass; assay: Test Example 5: herbicidal effect by foliage application, plastic box (Table 20, symbol L); type: in vivo, windgrass (Apera spica-venti); details: foliage application, 3 weeks after application
Outline: as §2

[16] = system: lambsquarters; assay: Test Example 5: herbicidal effect by foliage application, plastic box (Table 20, symbol O); type: in vivo, lambsquarters (Chenopodium album); details: foliage application, 3 weeks after application
Outline: as §2

[17] = system: rice flat sedge; assay: Test Example 3: herbicidal effect by foliage application, Wagner pot (Table 18, symbol E); type: in vivo, rice flat sedge (Cyperus iria)
Outline: as §3

[18] = system: blackgrass; assay: Test Example 5: herbicidal effect by foliage application, plastic box (Table 20, symbol J); type: in vivo, blackgrass (Alopecurus myosuroides); details: foliage application, 3 weeks after application
Outline: as §2

[19] = system: persian speedwell; assay: Test Example 5: herbicidal effect by foliage application, plastic box (Table 20, symbol R); type: in vivo, Persian speedwell (Veronica persica); details: foliage application, 3 weeks after application
Outline: as §2

[20] = system: blackgrass; assay: Test Example 4: herbicidal effect by soil treatment (Table 19, symbol J); type: in vivo, blackgrass (Alopecurus myosuroides)
Outline: as §1

[21] = system: barnyard grass; assay: Test Example 5: herbicidal effect by foliage application, plastic box (Table 20, symbol H); type: in vivo, barnyard grass (Echinochloa crus-galli); details: foliage application, 3 weeks after application
Outline: as §2

[22] = system: Italian ryegrass; assay: Test Example 5: herbicidal effect by foliage application, plastic box (Table 20, symbol K); type: in vivo, Italian ryegrass (Lolium multiflorum); details: foliage application, 3 weeks after application
Outline: as §2

[23] = system: Italian ryegrass; assay: Test Example 4: herbicidal effect by soil treatment (Table 19, symbol K); type: in vivo, Italian ryegrass (Lolium multiflorum)
Outline: as §1

[24] = system: lambsquarters; assay: Test Example 4: herbicidal effect by soil treatment (Table 19, symbol O); type: in vivo, lambsquarters (Chenopodium album)
Outline: as §1

[25] = system: persian speedwell; assay: Test Example 4: herbicidal effect by soil treatment (Table 19, symbol R); type: in vivo, Persian speedwell (Veronica persica)
Outline: as §1

[26] = amount of applied herbicide 320 g/ha

## COc1nn(C)c(=O)c(-c2c(-c3ccsc3)sc3ccccc23)c1O [1-192]
[1]; AAH 80 g/ha
  H: barnyard grass, herbicidal effect rating: 0 (Herbicidal rate of 5% or less (almost no effect))
[2]; 80 g/ha
  effect on southern crabgrass (F): 0 (Herbicidal rate of 5% or less (almost no effect))
[3]; AAH 80 g/ha
  P: chickweed, herbicidal effect rating: 3 (Herbicidal rate of 40% or more and less than 70%)
[4]; 80 g/ha
  effect on velvetleaf (M): 0 (Herbicidal rate of 5% or less (almost no effect))
[5]; 80 g/ha
  effect on wild oat (I): 0 (Herbicidal rate of 5% or less (almost no effect))
[6]; AAH 80 g/ha
  G: green foxtail, herbicidal effect rating: 0 (Herbicidal rate of 5% or less (almost no effect))
[7]; AAH 80 g/ha
  N: redroot pigweed, herbicidal effect rating: 0 (Herbicidal rate of 5% or less (almost no effect))
[8]; AAH 80 g/ha
  F: southern crabgrass, herbicidal effect rating: 0 (Herbicidal rate of 5% or less (almost no effect))
[9]; 80 g/ha
  herbicidal effect on D (Chinese sprangletop), rating 0-5: 4 (Herbicidal rate of 70% or more and less than 90%)
[10]; AAH 80 g/ha
  I: wild oat, herbicidal effect rating: 0 (Herbicidal rate of 5% or less (almost no effect))
[11]; AAH 80 g/ha
  L: windgrass, herbicidal effect rating: 0 (Herbicidal rate of 5% or less (almost no effect))
[12]; 80 g/ha
  herbicidal effect on H (barnyard grass), rating 0-5: 1 (Herbicidal rate of 5% or more and less than 20%)
[13]; 80 g/ha
  effect on green foxtail (G): 0 (Herbicidal rate of 5% or less (almost no effect))
[14]; AAH 80 g/ha
  M: velvetleaf, herbicidal effect rating: 0 (Herbicidal rate of 5% or less (almost no effect))
[15]; 80 g/ha
  effect on windgrass (L): 0 (Herbicidal rate of 5% or less (almost no effect))
[16]; 80 g/ha
  effect on lambsquarters (O): 0 (Herbicidal rate of 5% or less (almost no effect))
[17]; 80 g/ha
  herbicidal effect on E (rice flat sedge), rating 0-5: 4 (Herbicidal rate of 70% or more and less than 90%)
[18]; 80 g/ha
  effect on blackgrass (J): 0 (Herbicidal rate of 5% or less (almost no effect))
[19]; 80 g/ha
  effect on persian speedwell (R): 3 (Herbicidal rate of 40% or more and less than 70%)
[20]; AAH 80 g/ha
  J: blackgrass, herbicidal effect rating: 0 (Herbicidal rate of 5% or less (almost no effect))
[21]; 80 g/ha
  effect on barnyard grass (H): 0 (Herbicidal rate of 5% or less (almost no effect))
[22]; 80 g/ha
  effect on Italian ryegrass (K): 0 (Herbicidal rate of 5% or less (almost no effect))
[23]; AAH 80 g/ha
  K: Italian ryegrass, herbicidal effect rating: 0 (Herbicidal rate of 5% or less (almost no effect))
[24]; AAH 80 g/ha
  O: lambsquarters, herbicidal effect rating: 0 (Herbicidal rate of 5% or less (almost no effect))
[25]; AAH 80 g/ha
  R: persian speedwell, herbicidal effect rating: 0 (Herbicidal rate of 5% or less (almost no effect))

## COCCSCc1ccc(-c2sc3ccccc3c2-c2c(O)c(C)nn(C)c2=O)cc1 [1-251]
[1]; AAH 320 g/ha
  H: barnyard grass, herbicidal effect rating: 0 (Herbicidal rate of 5% or less (almost no effect))
[2]; 320 g/ha
  effect on southern crabgrass (F): 1 (Herbicidal rate of 5% or more and less than 20%)
[3]; AAH 320 g/ha
  P: chickweed, herbicidal effect rating: 0 (Herbicidal rate of 5% or less (almost no effect))
[4]; 320 g/ha
  effect on velvetleaf (M): 5 (Herbicidal rate of 90% or more (almost completely withered))
[5]; 320 g/ha
  effect on wild oat (I): 0 (Herbicidal rate of 5% or less (almost no effect))
[6]; AAH 320 g/ha
  G: green foxtail, herbicidal effect rating: 0 (Herbicidal rate of 5% or less (almost no effect))
[7]; AAH 320 g/ha
  N: redroot pigweed, herbicidal effect rating: 0 (Herbicidal rate of 5% or less (almost no effect))
[8]; AAH 320 g/ha
  F: southern crabgrass, herbicidal effect rating: 0 (Herbicidal rate of 5% or less (almost no effect))
[9]; 320 g/ha
  herbicidal effect on D (Chinese sprangletop), rating 0-5: 3 (Herbicidal rate of 40% or more and less than 70%)
[10]; AAH 320 g/ha
  I: wild oat, herbicidal effect rating: 0 (Herbicidal rate of 5% or less (almost no effect))
[11]; AAH 320 g/ha
  L: windgrass, herbicidal effect rating: 0 (Herbicidal rate of 5% or less (almost no effect))
[12]; 320 g/ha
  herbicidal effect on H (barnyard grass), rating 0-5: 5 (Herbicidal rate of 90% or more (almost completely withered))
[13]; 320 g/ha
  effect on green foxtail (G): 5 (Herbicidal rate of 90% or more (almost completely withered))
[14]; AAH 320 g/ha
  M: velvetleaf, herbicidal effect rating: 0 (Herbicidal rate of 5% or less (almost no effect))
[15]; 320 g/ha
  effect on windgrass (L): 0 (Herbicidal rate of 5% or less (almost no effect))
[16]; 320 g/ha
  effect on lambsquarters (O): 4 (Herbicidal rate of 70% or more and less than 90%)
[17]; 320 g/ha
  herbicidal effect on E (rice flat sedge), rating 0-5: 3 (Herbicidal rate of 40% or more and less than 70%)
[18]; 320 g/ha
  effect on blackgrass (J): 3 (Herbicidal rate of 40% or more and less than 70%)
[19]; 320 g/ha
  effect on persian speedwell (R): 5 (Herbicidal rate of 90% or more (almost completely withered))
[20]; AAH 320 g/ha
  J: blackgrass, herbicidal effect rating: 0 (Herbicidal rate of 5% or less (almost no effect))
[21]; 320 g/ha
  effect on barnyard grass (H): 4 (Herbicidal rate of 70% or more and less than 90%)
[22]; 320 g/ha
  effect on Italian ryegrass (K): 4 (Herbicidal rate of 70% or more and less than 90%)
[23]; AAH 320 g/ha
  K: Italian ryegrass, herbicidal effect rating: 0 (Herbicidal rate of 5% or less (almost no effect))
[24]; AAH 320 g/ha
  O: lambsquarters, herbicidal effect rating: 0 (Herbicidal rate of 5% or less (almost no effect))
[25]; AAH 320 g/ha
  R: persian speedwell, herbicidal effect rating: 4 (Herbicidal rate of 70% or more and less than 90%)

## Cc1nn(C)c(=O)c(-c2c(-c3cnccc3Cl)sc3ccc(F)cc23)c1O [2-385]
[1]; [26]
  herbicidal effect, H: barnyard grass: 0 (Herbicidal rate of 5% or less (almost no effect))
[3]; [26]
  herbicidal effect, P: chickweed: 3 (Herbicidal rate of 40% or more and less than 70%)
[6]; [26]
  herbicidal effect, G: green foxtail: 0 (Herbicidal rate of 5% or less (almost no effect))
[7]; [26]
  herbicidal effect, N: redroot pigweed: 3 (Herbicidal rate of 40% or more and less than 70%)
[8]; [26]
  herbicidal effect, F: southern crabgrass: 0 (Herbicidal rate of 5% or less (almost no effect))
[9]; [26]
  herbicidal effect on D: Chinese sprangletop: 5 (Herbicidal rate of 90% or more (almost completely withered))
[10]; [26]
  herbicidal effect, I: wild oat: 3 (Herbicidal rate of 40% or more and less than 70%)
[11]; [26]
  herbicidal effect, L: windgrass: 1 (Herbicidal rate of 5% or more and less than 20%)
[12]; [26]
  herbicidal effect on H: barnyard grass: 5 (Herbicidal rate of 90% or more (almost completely withered))
[14]; [26]
  herbicidal effect, M: velvetleaf: 2 (Herbicidal rate of 20% or more and less than 40%)
[17]; [26]
  herbicidal effect on E: rice flat sedge: 5 (Herbicidal rate of 90% or more (almost completely withered))
[20]; [26]
  herbicidal effect, J: blackgrass: 0 (Herbicidal rate of 5% or less (almost no effect))
[23]; [26]
  herbicidal effect, K: Italian ryegrass: 4 (Herbicidal rate of 70% or more and less than 90%)
[24]; [26]
  herbicidal effect, O: lambsquarters: 4 (Herbicidal rate of 70% or more and less than 90%)
[25]; [26]
  herbicidal effect, R: persian speedwell: 5 (Herbicidal rate of 90% or more (almost completely withered))
